In PubChem BioAssay AID248 (DTP/NCI, 2004):
Where “and” joins values, the source holds several entries; their conditions need not be identical. Equal values may be shown once. Toxic doses and inconclusive results are not listed. Cut-off read from the data, not from the text of the source: active = T/C of 150% or more; inactive = T/C below 125%.

System: L1210 leukemia ip in BDF1 mice, survival T/C
Assay: NCI In Vivo Anticancer Drug Screen. Data for tumor model L1210 Leukemia (intraperitoneal) in B6D2F1 (BDF1) mice
Conditions: endpoint: mean survival time, higher = longer survival
In short: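 Antitumor effect is assessed in tumor-bearing animals. Survival in the compound arm is compared with a vehicle-dosed control arm and expressed as their quotient.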

[1] = dose: 100.0 mg/kg/injection, schedule: Q01DX009 (ip), vehicle: Klucel (hydroxypropylcellulose) (HPC)
[2] = dose: 100.0 mg/kg/injection, schedule: Q04DX003 (ip), vehicle: Klucel (hydroxypropylcellulose) (HPC)
[3] = dose: 200.0 mg/kg/injection, schedule: Q01DX009 (ip), vehicle: Klucel (hydroxypropylcellulose) (HPC)
[4] = dose: 200.0 mg/kg/injection, schedule: Q04DX003 (ip), vehicle: Klucel (hydroxypropylcellulose) (HPC)
[5] = dose: 400.0 mg/kg/injection, schedule: Q01DX009 (ip), vehicle: Klucel (hydroxypropylcellulose) (HPC)
[6] = dose: 400.0 mg/kg/injection, schedule: Q04DX003 (ip), vehicle: Klucel (hydroxypropylcellulose) (HPC)
[7] = dose: 100.0 mg/kg/injection, schedule: Q01DX001 (ip), vehicle: carboxymethylcellulose (CMC)
[8] = dose: 200.0 mg/kg/injection, schedule: Q01DX001 (ip), vehicle: carboxymethylcellulose (CMC)
[9] = dose: 400.0 mg/kg/injection, schedule: Q01DX001 (ip), vehicle: carboxymethylcellulose (CMC)
[10] = dose: 100.0 mg/kg/injection, schedule: Q01DX001 (ip), vehicle: saline
[11] = dose: 200.0 mg/kg/injection, schedule: Q01DX001 (ip), vehicle: saline
[12] = dose: 400.0 mg/kg/injection, schedule: Q01DX001 (ip), vehicle: saline
[13] = dose: 100.0 mg/kg/injection, schedule: Q04DX002 (ip), vehicle: saline
[14] = dose: 100.0 mg/kg/injection, schedule: Q04DX003 (ip), vehicle: saline

Measured: T/C

CC(=O)Oc1cccc2ccc(/C=C/c3cccc[n+]3C)nc12
inactive: dose: 4.0 mg/kg/injection, schedule: Q01DX015 (ip), vehicle: carboxymethylcellulose (CMC) 95 % of control | dose: 8.0 mg/kg/injection, schedule: Q01DX015 (ip), vehicle: carboxymethylcellulose (CMC) 107 % of control | dose: 16.0 mg/kg/injection, schedule: Q01DX015 (ip), vehicle: carboxymethylcellulose (CMC) 97 % of control | dose: 32.0 mg/kg/injection, schedule: Q01DX015 (ip), vehicle: carboxymethylcellulose (CMC) 102 % of control

O=C(CC(=O)c1ccccc1)Nc1ccccc1
inactive: dose: 100.0 mg/kg/injection, schedule: Q01DX001 (ip), vehicle: gum acacia 103 % of control and 104 % of control | dose: 100.0 mg/kg/injection, schedule: Q01DX009 (ip), vehicle: gum acacia 95 % of control and 104 % of control | dose: 100.0 mg/kg/injection, schedule: Q04DX002 (ip), vehicle: gum acacia 100 % of control and 88 % of control | dose: 100.0 mg/kg/injection, schedule: Q04DX003 (ip), vehicle: gum acacia 96 % of control and 91 % of control | dose: 200.0 mg/kg/injection, schedule: Q01DX001 (ip), vehicle: gum acacia 96 % of control and 97 % of control | dose: 200.0 mg/kg/injection, schedule: Q01DX009 (ip), vehicle: gum acacia 92 % of control | dose: 200.0 mg/kg/injection, schedule: Q04DX002 (ip), vehicle: gum acacia 98 % of control and 90 % of control | dose: 200.0 mg/kg/injection, schedule: Q04DX003 (ip), vehicle: gum acacia 96 % of control and 88 % of control | dose: 400.0 mg/kg/injection, schedule: Q01DX001 (ip), vehicle: gum acacia 92 % of control and 93 % of control | dose: 400.0 mg/kg/injection, schedule: Q01DX009 (ip), vehicle: gum acacia 102 % of control | dose: 400.0 mg/kg/injection, schedule: Q04DX002 (ip), vehicle: gum acacia 94 % of control and 91 % of control | dose: 400.0 mg/kg/injection, schedule: Q04DX003 (ip), vehicle: gum acacia 93 % of control and 94 % of control

CC1(C)C2CCC(CC(=O)O)C1C2 (stereo unspecified)
inactive: dose: 100.0 mg/kg/injection, schedule: Q04DX003 (ip), vehicle: saline with Tween-80 101 % of control | dose: 200.0 mg/kg/injection, schedule: Q04DX003 (ip), vehicle: saline with Tween-80 101 % of control

CCOC(=O)c1cnc(SC)nc1Nc1ccccc1C
inactive: [1] 96 % of control | [2] 97 % of control | [3] 93 % of control | [4] 98 % of control | [5] 91 % of control | [6] 98 % of control

COc1ccc(-c2ccccc2)cc1SCCC(=O)O
inactive: dose: 50.0 mg/kg/injection, schedule: Q01DX001 (ip), vehicle: carboxymethylcellulose (CMC) 114 % of control | [7] 101 % of control | [8] 97 % of control | [9] 95 % of control

CC(C)CC([NH-])C(=O)O.CC(C)CC([NH-])C(=O)O.CC(C)CC([NH-])C(=O)O.[Co+3] (stereo unspecified)
inactive: dose: 12.5 mg/kg/injection, schedule: Q01DX009 (ip), vehicle: water 106 % of control | dose: 25.0 mg/kg/injection, schedule: Q01DX009 (ip), vehicle: water 95 % of control | dose: 50.0 mg/kg/injection, schedule: Q01DX009 (ip), vehicle: water 98 % of control and 104 % of control | dose: 100.0 mg/kg/injection, schedule: Q01DX009 (ip), vehicle: water 117 % of control | dose: 100.0 mg/kg/injection, schedule: Q04DX003 (ip), vehicle: water 107 % of control and 98 % of control | dose: 200.0 mg/kg/injection, schedule: Q01DX009 (ip), vehicle: water 111 % of control | dose: 200.0 mg/kg/injection, schedule: Q04DX003 (ip), vehicle: water 110 % of control and 112 % of control | dose: 400.0 mg/kg/injection, schedule: Q04DX003 (ip), vehicle: water 102 % of control

O=c1[nH]c2ccccc2n1C1OC(CO)C(O)C1O (stereo unspecified)
inactive: [10] 98 % of control | [11] 93 % of control | [12] 100 % of control

NC(=O)NC1CC1c1ccccc1 (stereo unspecified)
inactive: [10] 101 % of control | [11] 95 % of control | [12] 120 % of control

CCCCCCCC(=O)N1CC(C)OC(C)C1 (stereo unspecified)
inactive: dose: 100.0 mg/kg/injection, schedule: Q04DX002 (ip), vehicle: Klucel (hydroxypropylcellulose) (HPC) 100 % of control | dose: 200.0 mg/kg/injection, schedule: Q04DX002 (ip), vehicle: Klucel (hydroxypropylcellulose) (HPC) 114 % of control | dose: 400.0 mg/kg/injection, schedule: Q04DX002 (ip), vehicle: Klucel (hydroxypropylcellulose) (HPC) 107 % of control

CCC(=O)Nc1cc(C(C)C)ccc1C
inactive: [1] 107 % of control | [2] 97 % of control | [3] 110 % of control | [4] 97 % of control | [5] 103 % of control | [6] 104 % of control

COC(=O)CNC(=O)c1cccc([N+](=O)[O-])c1
inactive: [10] 96 % of control | [11] 94 % of control | [12] 97 % of control

CC(C)(C)C(=O)CC(=O)C(C)(C)C.CC(C)(C)C(=O)CC(=O)C(C)(C)C.CC(C)(C)C(=O)CC(=O)C(C)(C)C.[Sm]
inactive: dose: 100.0 mg/kg/injection, schedule: Q01DX005 (ip), vehicle: saline 112 % of control | dose: 100.0 mg/kg/injection, schedule: Q01DX009 (ip), vehicle: saline 106 % of control | [13] 92 % of control | dose: 200.0 mg/kg/injection, schedule: Q01DX005 (ip), vehicle: saline 109 % of control | dose: 200.0 mg/kg/injection, schedule: Q01DX009 (ip), vehicle: saline 103 % of control | dose: 200.0 mg/kg/injection, schedule: Q04DX002 (ip), vehicle: saline 95 % of control | dose: 400.0 mg/kg/injection, schedule: Q01DX005 (ip), vehicle: saline 98 % of control | dose: 400.0 mg/kg/injection, schedule: Q01DX009 (ip), vehicle: saline 98 % of control | dose: 400.0 mg/kg/injection, schedule: Q04DX002 (ip), vehicle: saline 103 % of control

CCC(NC)c1ccccc1 (stereo unspecified)
inactive: dose: 25.0 mg/kg/injection, schedule: Q04DX002 (ip), vehicle: saline 104 % of control | dose: 50.0 mg/kg/injection, schedule: Q04DX002 (ip), vehicle: saline 89 % of control | [13] 106 % of control

C=CCOCC(O)CN(C)CCCC (stereo unspecified)
inactive: dose: 25.0 mg/kg/injection, schedule: Q04DX003 (ip), vehicle: saline 101 % of control | dose: 50.0 mg/kg/injection, schedule: Q01DX009 (ip), vehicle: Klucel (hydroxypropylcellulose) (HPC) 100 % of control | dose: 50.0 mg/kg/injection, schedule: Q04DX003 (ip), vehicle: saline 97 % of control | [1] 94 % of control | [14] 103 % of control and 91 % of control

CCOP(=S)(OCC)SCc1c(C)c(C)c(CSP(=S)(OCC)OCC)c(C)c1C
inactive: [1] 95 % of control | [2] 103 % of control | [3] 103 % of control | [4] 101 % of control | [5] 93 % of control | [6] 105 % of control

C=CC(C)(C)CCCC
inactive: [14] 104 % of control | dose: 200.0 mg/kg/injection, schedule: Q04DX003 (ip), vehicle: saline 101 % of control | dose: 400.0 mg/kg/injection, schedule: Q04DX003 (ip), vehicle: saline 110 % of control

CN(C)S(=O)(=O)c1ccc(Nc2ccc(O)c3c2C(=O)c2c([N+](=O)[O-])ccc(O)c2C3=O)cc1
inactive: dose: 75.0 mg/kg/injection, schedule: Q01DX001 (ip), vehicle: steriod suspending solution 98 % of control | dose: 150.0 mg/kg/injection, schedule: Q01DX001 (ip), vehicle: steriod suspending solution 98 % of control | dose: 300.0 mg/kg/injection, schedule: Q01DX001 (ip), vehicle: steriod suspending solution 100 % of control

O=c1[nH]c2ccccc2n1C1CCN(CCCC(c2ccc(F)cc2)c2ccc(F)cc2)CC1
inactive: dose: 12.5 mg/kg/injection, schedule: Q01DX009 (ip), vehicle: Klucel (hydroxypropylcellulose) (HPC) 100 % of control | dose: 25.0 mg/kg/injection, schedule: Q01DX009 (ip), vehicle: Klucel (hydroxypropylcellulose) (HPC) 120 % of control | dose: 25.0 mg/kg/injection, schedule: Q04DX003 (ip), vehicle: Klucel (hydroxypropylcellulose) (HPC) 88 % of control | dose: 50.0 mg/kg/injection, schedule: Q04DX003 (ip), vehicle: Klucel (hydroxypropylcellulose) (HPC) 104 % of control | [1] 88 % of control | [2] 104 % of control | [4] 109 % of control | [6] 95 % of control

O=[N+]([O-])c1ccc(C=Nc2cccc3ncccc23)s1
inactive: [2] 95 % of control | [4] 93 % of control

Cc1ccc(S(=O)(=O)OC2C(C)(C)C(=O)C2(C)C)cc1
inactive: [7] 97 % of control | [8] 92 % of control | [9] 92 % of control
